Measurements: US8501794B2, “Compounds as cannabinoid receptor ligands” (priority 2007, dated 2013)
pEC50, pKi: −log10 of the molar value.

Assays:
[1] = target: T1, human CB2 receptors (Homo sapiens, UniProt P34972); experiment: human CB2 radioligand binding assay ([3H]CP-55,940 competition)
T1 construct: expressed in transfected cells; host or cells: HEK293

[2] = target: T2, rat CB2 (Rattus norvegicus, UniProt Q9QZN9); experiment: rat CB2 cyclase functional assay (HitHunter cAMP, HEK cells); type: cell-based; parameters: expressed in transfected cells; host or cells: HEK; details: forskolin 18 μM
T2 sequence (Q9QZN9 1-360): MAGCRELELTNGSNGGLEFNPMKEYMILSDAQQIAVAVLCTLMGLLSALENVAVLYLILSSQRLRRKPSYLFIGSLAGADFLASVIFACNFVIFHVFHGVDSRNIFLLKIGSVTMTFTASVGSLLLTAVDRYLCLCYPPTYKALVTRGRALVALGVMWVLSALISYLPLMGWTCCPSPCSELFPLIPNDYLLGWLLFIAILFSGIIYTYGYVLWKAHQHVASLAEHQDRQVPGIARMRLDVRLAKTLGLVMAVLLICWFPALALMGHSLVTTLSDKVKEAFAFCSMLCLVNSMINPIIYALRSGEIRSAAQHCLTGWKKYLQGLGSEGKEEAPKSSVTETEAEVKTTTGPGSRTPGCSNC

[3] = target: T2, rat CB2; experiment: rat CB2 radioligand binding assay ([3H]CP-55,940 competition); parameters: expressed in transfected cells; host or cells: HEK293

T1 sequence (P34972 whole entry): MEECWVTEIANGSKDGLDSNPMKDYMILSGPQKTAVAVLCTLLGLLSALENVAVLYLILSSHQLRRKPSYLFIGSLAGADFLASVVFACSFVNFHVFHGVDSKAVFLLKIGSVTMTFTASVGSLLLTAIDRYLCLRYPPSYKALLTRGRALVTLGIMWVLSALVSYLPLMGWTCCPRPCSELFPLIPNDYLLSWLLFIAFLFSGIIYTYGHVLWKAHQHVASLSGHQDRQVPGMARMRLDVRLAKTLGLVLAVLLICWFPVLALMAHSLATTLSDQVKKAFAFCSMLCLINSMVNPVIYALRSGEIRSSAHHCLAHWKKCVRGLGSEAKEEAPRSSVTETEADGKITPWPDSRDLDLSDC

SMILES	pKi [1]	pEC50 [2]	pKi [3]
CCCCc1cn(C(C)(C)C(F)(F)F)s/c1=N\C(=O)c1cc(Cl)ccc1OC [Example 151, N-[(5Z)-4-butyl-2-(2,2,2-trifluoro-1,1-dimethylethyl)isothiazol-5(2H)-ylidene]-5-chloro-2-methoxybenzamide]	8.04	10.14	9.40
CCCCc1cn(C(C)(C)CF)s/c1=N\C(=O)c1cc(C(F)(F)F)ccc1OC [Example 152, N-[(5Z)-4-butyl-2-(2-fluoro-1,1-dimethylethyl)isothiazol-5(2H)-ylidene]-2-methoxy-5-(trifluoromethyl)benzamide]	8.29	10.15	9.10
CCCCc1cn(C(C)(C)C)s/c1=N\C(=O)c1cc(Cl)ccc1OCC#N [Example 153, N-[(5Z)-4-butyl-2-tert-butylisothiazol-5(2H)-ylidene]-5-chloro-2-(cyanomethoxy)benzamide]	7.89	10.21	8.68
CCCCc1cn(C(C)(C)CF)s/c1=N\C(=O)c1cc(Cl)ccc1OC [Example 154, N-[(5Z)-4-butyl-2-(2-fluoro-1,1-dimethylethyl)isothiazol-5(2H)-ylidene]-5-chloro-2-methoxybenzamide]	8.24	10.19	9.49
COc1ccc(Cl)cc1C(=O)/N=c1\sn(C(C)(C)C)cc1OCCCCF [Example 158, N-[(5Z)-2-tert-butyl-4-(4-fluorobutoxy)isothiazol-5(2H)-ylidene]-5-chloro-2-methoxybenzamide]	7.32	10.34	8.21
CCCCc1cn(C(C)(C)C)s/c1=N\C(=O)[C@H]1CC[C@@](C)(C(=O)OC)C1(C)C [Example 170, Methyl (1R,3S)-3-({[(5Z)-4-butyl-2-tert-butylisothiazol-5(2H)-ylidene]amino}carbonyl)-1,2,2-trimethylcyclopentanecarboxylate]	8.85	10.37	8.77
CCCCc1cn(C(C)(C)C)s/c1=N\C(=O)[C@H]1CC[C@@](C)(C(N)=O)C1(C)C [Example 171, (1R,3S)—N^3-[(5Z)-4-butyl-2-tert-butylisothiazol-5(2H)-ylidene]-1,2,2-trimethylcyclopentane-1,3-dicarboxamide]	8.05	9.72	8.24
CCCCc1cn(C(C)(C)C)s/c1=N\C(=O)[C@]1(C)CC[C@H](C(=O)O)C1(C)C [Example 173, (1S,3R)-3-({[(5Z)-4-butyl-2-tert-butylisothiazol-5(2H)-ylidene]amino}carbonyl)-2,2,3-trimethylcyclopentanecarboxylic acid]	6.97	8.46	7.11
CCCCc1cn(C(C)(C)C)s/c1=N\C(=O)[C@@]1(C)CC[C@@H](C(=O)O)C1(C)C [Example 174, (1R,3S)-3-({[(5Z)-4-butyl-2-tert-butylisothiazol-5(2H)-ylidene]amino}carbonyl)-2,2,3-trimethylcyclopentanecarboxylic acid]	7.21	8.47	7.48
CCCCc1cn(C(C)(C)C)s/c1=N\C(=O)[C@]1(C)CC[C@H](C(=O)OCC)C1(C)C [Example 175, Ethyl (1S,3R)-3-({[(5Z)-4-butyl-2-tert-butylisothiazol-5(2H)-ylidene]amino}carbonyl)-2,2,3-trimethylcyclopentanecarboxylate]	8.42	9.27	8.82
CCCCc1cn(C(C)(C)C)s/c1=N\C(=O)[C@@]1(C)CC[C@@H](C(=O)OCC)C1(C)C [Example 176, Ethyl (1R,3S)-3-({[(5Z)-4-butyl-2-tert-butylisothiazol-5(2H)-ylidene]amino}carbonyl)-2,2,3-trimethylcyclopentanecarboxylate]	7.80	8.96	8.15
CCCCc1cn(C(C)(C)C)s/c1=N\C(=O)[C@]1(C)CC[C@H](C(=O)OC)C1(C)C [Example 177, Methyl (1S,3R)-3-({[(5Z)-4-butyl-2-tert-butylisothiazol-5(2H)-ylidene]amino}carbonyl)-2,2,3-trimethylcyclopentanecarboxylate]	9.80	9.82	10.00
CCCCc1cn(C(C)(C)C)s/c1=N\C(=O)[C@]1(C)CC[C@H](C(=O)NC)C1(C)C [Example 184, (1R,3S)—N^1-[(5Z)-4-butyl-2-tert-butylisothiazol-5(2H)-ylidene]-N^3,1,2,2-tetramethylcyclopentane-1,3-dicarboxamide]	8.19	9.39	8.49
CCCCc1cn(C(C)(C)C)s/c1=N\C(=O)[C@@]1(C)CC[C@@H](C(=O)OC)C1(C)C [Example 186, Methyl (1R,3S)-3-({[(5Z)-4-butyl-2-tert-butylisothiazol-5(2H)-ylidene]amino}carbonyl)-2,2,3-trimethylcyclopentanecarboxylate]	8.77	9.42	8.85
CCCCc1cn(C(C)(C)C)s/c1=N\C(=O)NC1CCC(C)CC1 (stereo not drawn) [Example 191, N-[(5Z)-4-butyl-2-tert-butylisothiazol-5(2H)-ylidene]-N′-(4-methylcyclohexyl)urea]	7.82	9.29	8.74
CCCCc1cn(C(C)(C)C)s/c1=N\C(=O)c1cc(C(F)(F)F)ccc1OC[C@@H]1CCCN1C [Example 192, N-[(5Z)-4-butyl-2-tert-butylisothiazol-5(2H)-ylidene]-2-{[(2S)-1-methylpyrrolidin-2-yl]methoxy}-5-(trifluoromethyl)benzamide]	7.34	8.47	7.74
CCCCc1cn(C(C)(C)C)s/c1=N\C(=NC#N)c1cc(C(F)(F)F)ccc1OC[C@@H]1CCCN1C [Example 193]	7.43	8.57	7.01
CCCCc1cn(C(C)(C)C)s/c1=N\C(=O)c1cc(C(F)(F)F)ccc1OC[C@@H]1COC(=O)N1 [Example 195, N-[(5Z)-4-butyl-2-tert-butylisothiazol-5(2H)-ylidene]-2-{[(4R)-2-oxo-1,3-oxazolidin-4-yl]methoxy}-5-(trifluoromethyl)benzamide]	7.80	8.85	8.12
CCCCc1cn(C(C)(C)C)s/c1=N\C(=O)c1cc(C(F)(F)F)ccc1OCC1CCCCN1C (stereo not drawn) [Example 196, N-[(5Z)-4-butyl-2-tert-butylisothiazol-5(2H)-ylidene]-2-[(1-methylpiperidin-2-yl)methoxy]-5-(trifluoromethyl)benzamide]	7.74	8.62	7.54
CCCCc1cn(C(C)(C)C)s/c1=N\C(=O)[C@@H]1CC[C@](C)(C(=O)NC)C1(C)C [Example 209, (1S,3R)—N^3-[(5Z)-4-butyl-2-tert-butylisothiazol-5(2H)-ylidene]-N^1,1,2,2-tetramethylcyclopentane-1,3-dicarboxamide]	7.92	9.36	8.14
CCCCc1cn(C(C)(C)C)s/c1=N\C(=O)[C@@H]1CC[C@](C)(C(=O)NCC)C1(C)C [Example 210, (1S,3R)—N^3-[(5Z)-4-butyl-2-tert-butylisothiazol-5(2H)-ylidene]-N^1-ethyl-1,2,2-trimethylcyclopentane-1,3-dicarboxamide]	7.44	9.72	7.31
CCCCc1cn(C(C)(C)C)s/c1=N\C(=O)[C@@H]1CC[C@](C)(C(=O)NCCO)C1(C)C [Example 212, (1S,3R)—N^3-[(5Z)-4-butyl-2-tert-butylisothiazol-5(2H)-ylidene]-N^1-(2-hydroxyethyl)-1,2,2-trimethylcyclopentane-1,3-dicarboxamide]	6.74	8.21	6.59
CCCCc1cn(C(C)(C)C)s/c1=N\C(=O)[C@]1(C)CC[C@H](C2=NCCO2)C1(C)C [Example 217, (1R,3S)—N-[(5Z)-4-butyl-2-tert-butylisothiazol-5(2H)-ylidene]-3-(4,5-dihydro-1,3-oxazol-2-yl)-1,2,2-trimethylcyclopentanecarboxamide]	9.15	9.80	9.14
CCCCc1cn(C(C)(C)C)s/c1=N\C(=O)[C@@]1(C)CC[C@@H](C(=O)NC)C1(C)C [Example 218, (1S,3R)—N^1-[(5Z)-4-butyl-2-tert-butylisothiazol-5(2H)-ylidene]-N^3,1,2,2-tetramethylcyclopentane-1,3-dicarboxamide]	7.28	8.96	7.54
CCCCc1cn(C(C)(C)C)s/c1=N\C(=O)[C@@]1(C)CC[C@@H](C(=O)N2CCC2)C1(C)C [Example 222, (1S,3R)-3-(azetidin-1-ylcarbonyl)-N-[(5Z)-4-butyl-2-tert-butylisothiazol-5(2H)-ylidene]-1,2,2-trimethylcyclopentanecarboxamide]	6.77	8.24	7.15
CCCCc1cn(C(C)(C)C)s/c1=N\C(=O)[C@@]1(C)CC[C@@H](C(=O)N(C)C)C1(C)C [Example 223, (1S,3R)—N^1-[(5Z)-4-butyl-2-tert-butylisothiazol-5(2H)-ylidene]-N^3,N^3,1,2,2-pentamethylcyclopentane-1,3-dicarboxamide]	7.04	8.24	7.21
